Assay results published in US4904590A, “Antibiotic A80915 and process for its production” (Eli Lilly and Company, priority 1988, dated 1990).
≈ marks a conversion by molar mass, not a printed value. Read-outs that look alike come from different tables or passages of the source.

How the values were obtained:
[1] = test system: Bacteriodes vulgatis 1211; assay: Susceptibility of anaerobic bacterial isolates (MIC), agar-dilution; type: cell-based
[2] = test system: Fusobacterium necrophorum 6054A; assay: as above; type: cell-based
[3] = test system: Bacteriodes fragilis 1877; assay: as above; type: cell-based
[4] = test system: Peptostreptococcus anaerobius 1428; assay: as above; type: cell-based
[5] = test system: Fusobacterium symbiosum 1470; assay: as above; type: cell-based
[6] = test system: Bacteriodes corrodens 1874; assay: as above; type: cell-based
Staphylococcus sp. = type: cell-based; conditions: Veterinary organism Staphylococcus sp.; agar-dilution
Procedure: (§1) The A80915 antibiotics inhibit the growth of bacteria which are pathogenic to animal life. […] The MIC's in Table III were determined by conventional agar-dilution assays.

Salmonella typhimurium = type: cell-based; conditions: Salmonella enterica; Veterinary organism Salmonella typhimurium; agar-dilution
Procedure: as §1

[7] = test system: Staphylococcus aureus X400; type: cell-based; conditions: Staphylococcus aureus X400; agar-dilution; read-out: MIC
Procedure: as §1

Escherichia coli = type: cell-based; conditions: Veterinary organism Escherichia coli; agar-dilution
Procedure: as §1

Streptococcus sp. = type: cell-based; conditions: Veterinary organism Streptococcus sp.; agar-dilution
Procedure: as §1

[8] = test system: Streptococcus faecium 2041; type: cell-based; conditions: Enterococcus faecium; Streptococcus faecium 2041; agar-dilution; read-out: MIC
Procedure: as §1

Gram-negative = type: cell-based; conditions: agar-dilution
Procedure: as §1

Mycoplasma hyopneumoniae = type: cell-based; conditions: Mesomycoplasma hyopneumoniae; Veterinary organism Mycoplasma hyopneumoniae; agar-dilution
Procedure: as §1

[9] = test system: Streptococcus pyogenes C203; type: cell-based; conditions: Streptococcus pyogenes C203; agar-dilution; read-out: MIC
Procedure: as §1

[10] = test system: Staphylococcus epidermis 222; type: cell-based; conditions: Staphylococcus epidermis 222; agar-dilution; read-out: MIC
Procedure: as §1

[11] = test system: Streptococcus pneumoniae Park1; type: cell-based
Procedure: as §1

[12] = test system: Staphylococcus epidermis EPI1; type: cell-based; conditions: Staphylococcus epidermis EPI1; agar-dilution; read-out: MIC
Procedure: as §1

[13] = test system: Staphylococcus aureus V41; type: cell-based; conditions: Staphylococcus aureus V41; agar-dilution; read-out: MIC
Procedure: as §1

Pasteurella multocida = type: cell-based; conditions: Veterinary organism Pasteurella multocida; agar-dilution
Procedure: as §1

[14] = test system: Streptococcus faecium X66; type: cell-based; conditions: Enterococcus faecium; Streptococcus faecium X66; agar-dilution; read-out: MIC
Procedure: as §1

Mycoplasma gallisepticum = type: cell-based; conditions: Mycoplasmoides gallisepticum; Veterinary organism Mycoplasma gallisepticum; agar-dilution
Procedure: as §1

[15] = test system: Bordetella bronchiseptica; type: cell-based; conditions: Veterinary organism Bordetella bronchiseptica; agar-dilution
Procedure: as §1

[16] = test system: Staphylococcus aureus X1.1; type: cell-based; conditions: Staphylococcus aureus X1.1; agar-dilution; read-out: MIC
Procedure: as §1

Pasteurella hemolytica = type: cell-based; conditions: Veterinary organism Pasteurella hemolytica; agar-dilution
Procedure: as §1

Peptococcus prevoti 1281 = assay: Susceptibility of anaerobic bacterial isolates (MIC), agar-dilution; type: cell-based
Trichomonas vaginalis = assay: Anti-protozoan activity (MIC); type: cell-based
[17] = test system: Bacteriodes melaninogenicus 1856/28; assay: Susceptibility of anaerobic bacterial isolates (MIC), agar-dilution; type: cell-based
[18] = test system: Bacteriodes melaninogenicus 2736; assay: as above; type: cell-based
[19] = test system: Peptostreptococcus intermedius 1264; assay: as above; type: cell-based
Candida albicans = assay: Anti-fungal activity (MIC); type: cell-based
[20] = test system: Clostridium perfringens 81; assay: microbe, parasite or virus in culture; type: cell-based; conditions: Clostridium perfringens, 81, 24 h
[21] = test system: Bacteriodes fragilis 1936B; assay: Susceptibility of anaerobic bacterial isolates (MIC), agar-dilution; type: cell-based
[22] = Spontaneous loss of nitrogen on standing in solvent; type: physicochemical; conditions: standing at room temperature in a solvent such as methanol, ethanol or water
From the text: Loss of nitrogen is accelerated by, for example, heating or the addition of salts or mild reducing agents such as sodium hyposulfite, and the like.

[23] = test system: Clostridium septicum 1128; assay: Susceptibility of anaerobic bacterial isolates (MIC), agar-dilution; type: cell-based; conditions: 24-hour incubation
Procedure: The A80915 antibiotics also are active against anaerobic bacteria. […] End points were read after 24-hour incubation.

Bacteriodes fragilis 111 = assay: as above; type: cell-based
[24] = test system: Peptococcus asaccharolyticus 1302; assay: as above; type: cell-based; conditions: Peptoniphilus asaccharolyticus, 1302, 24 h
[25] = Acute toxicity in mice, intraperitoneal injection; conditions: mouse, in vivo, ip
From the text: The acute toxicity of the A80915 antibiotics in mice, when administered by intraperitoneal injection and expressed as LD50, is shown in Table V.

[26] = test system: Propionibacterium acnes 79; assay: Susceptibility of anaerobic bacterial isolates (MIC), agar-dilution; type: cell-based
Trichomonas foetus = assay: Anti-protozoan activity (MIC); type: cell-based; conditions: Tritrichomonas foetus
[27] = test system: Eubacterium aerofaciens 1235; assay: Susceptibility of anaerobic bacterial isolates (MIC), agar-dilution; type: cell-based
[28] = test system: Bacteriodes thetaiotaomicron 1438; assay: as above; type: cell-based
[29] = test system: Clostridium difficile 2994; assay: as above; type: cell-based

C=C1CCC(Cl)C(C)(C)C1CC12OC(C)(C)C(Cl)CC1(Cl)C(=O)c1c(O)c(C)c([O-])c([N+]#N)c1C2=O (centres unmarked) [A80915B]
MIC ([1]; 24 h): > 128 µg/mL
MIC ([2]; Fusobacterium necrophorum, 6054A, 24 h): > 128 µg/mL
MIC ([3]; 24 h): > 128 µg/mL
MIC ([4]; Peptostreptococcus anaerobius, 1428, 24 h): > 128 µg/mL
MIC ([5]; Fusobacterium, 1470, 24 h): > 128 µg/mL
MIC ([6]; 24 h): > 128 µg/mL
MIC (Staphylococcus sp.): < 0.05 µg/mL
MIC (Salmonella typhimurium): > 50 µg/mL
MIC [7]: 2 µg/mL (≈ 3.6 µM)
MIC (Escherichia coli): > 50 µg/mL
MIC (Streptococcus sp.): 0.1 µg/mL (≈ 0.18 µM)
MIC [8]: 8 µg/mL (≈ 14.4 µM)
MIC (Gram-negative): > 128 µg/mL
MIC (Mycoplasma hyopneumoniae): 3.12 µg/mL (≈ 5.61 µM)
MIC [9]: 8 µg/mL (≈ 14.4 µM)
MIC [10]: 2 µg/mL (≈ 3.6 µM)
MIC ([11]; Streptococcus pneumoniae, PARK1): 8 µg/mL (≈ 14.4 µM)
MIC [12]: 2 µg/mL (≈ 3.6 µM)
MIC [13]: 2 µg/mL (≈ 3.6 µM)
MIC (Pasteurella multocida): 0.2 µg/mL (≈ 0.36 µM)
MIC [14]: 8 µg/mL (≈ 14.4 µM)
MIC (Mycoplasma gallisepticum): 0.1 µg/mL (≈ 0.18 µM)
MIC [15]: > 50 µg/mL
MIC [16]: 2 µg/mL (≈ 3.6 µM)
MIC (Pasteurella hemolytica): 12.5 µg/mL (≈ 22.5 µM)
MIC (Peptococcus prevoti 1281; 24 h): 64 µg/mL (≈ 115 µM)
MIC (Trichomonas vaginalis): 6.25 µg/mL (≈ 11.2 µM)
MIC ([17]; 24 h): 128 µg/mL (≈ 230 µM)
MIC ([18]; 24 h): > 128 µg/mL
MIC ([19]; Peptostreptococcus, 1264, 24 h): 128 µg/mL (≈ 230 µM)
MIC (Candida albicans): 5 µg/mL (≈ 8.99 µM)
MIC [20]: > 128 µg/mL
MIC ([21]; 24 h): > 128 µg/mL
loss of nitrogen (stability) [22]: spontaneously lose nitrogen
MIC [23]: > 128 µg/mL
MIC (Bacteriodes fragilis 111; 24 h): > 128 µg/mL
MIC [24]: 128 µg/mL (≈ 230 µM)
LD50 [25]: 75 mg/kg
MIC ([26]; Cutibacterium acnes, 79, 24 h): 128 µg/mL (≈ 230 µM)
MIC (Trichomonas foetus): 12.5 µg/mL (≈ 22.5 µM)
MIC ([27]; Collinsella aerofaciens, 1235, 24 h): > 128 µg/mL
MIC ([28]; 24 h): > 128 µg/mL
MIC ([29]; Clostridioides difficile, 2994, 24 h): > 128 µg/mL

Cc1c([O-])c([N+]#N)c2c(c1O)C(=O)[C@@]1(Cl)C[C@@H](Cl)C(C)(C)O[C@@]1(C[C@H]1C(C)(C)[C@@H](Cl)CC[C@]1(C)O)C2=O [A80915D]
MIC ([1]; Bacteriodes vulgatis 1211, agar-dilution, 24-hour incubation, read-out: MIC): > 128 µg/mL
MIC ([2]; Fusobacterium necrophorum 6054A, agar-dilution, 24-hour incubation, read-out: MIC): 8 µg/mL (≈ 13.9 µM)
MIC ([3]; Bacteriodes fragilis 1877, agar-dilution, 24-hour incubation, read-out: MIC): 16 µg/mL (≈ 27.9 µM)
MIC ([4]; Peptostreptococcus anaerobius 1428, agar-dilution, 24-hour incubation, read-out: MIC): 8 µg/mL (≈ 13.9 µM)
MIC ([5]; Fusobacterium symbiosum 1470, agar-dilution, 24-hour incubation, read-out: MIC): > 128 µg/mL
MIC ([6]; Bacteriodes corrodens 1874, agar-dilution, 24-hour incubation, read-out: MIC): > 128 µg/mL
MIC (Staphylococcus sp.): 0.2 µg/mL (≈ 0.348 µM)
MIC (Salmonella typhimurium): > 50 µg/mL
MIC [7]: 2 µg/mL (≈ 3.48 µM)
MIC (Escherichia coli): > 50 µg/mL
MIC (Streptococcus sp.): 3.12 µg/mL (≈ 5.44 µM)
MIC [8]: 32 µg/mL (≈ 55.8 µM)
MIC (Gram-negative): > 128 µg/mL
MIC (Mycoplasma hyopneumoniae): 25 µg/mL (≈ 43.6 µM)
MIC [9]: 2 µg/mL (≈ 3.48 µM)
MIC [10]: 1 µg/mL (≈ 1.74 µM)
MIC ([11]; Streptococcus pneumoniae Park1, agar-dilution, read-out: MIC): 1 µg/mL (≈ 1.74 µM)
MIC [12]: 2 µg/mL (≈ 3.48 µM)
MIC [13]: 2 µg/mL (≈ 3.48 µM)
MIC (Pasteurella multocida): 3.12 µg/mL (≈ 5.44 µM)
MIC [14]: 32 µg/mL (≈ 55.8 µM)
MIC (Mycoplasma gallisepticum): > 50 µg/mL
MIC [15]: > 50 µg/mL
MIC [16]: 1 µg/mL (≈ 1.74 µM)
MIC (Pasteurella hemolytica): 12.5 µg/mL (≈ 21.8 µM)
MIC (Peptococcus prevoti 1281; Peptococcus prevoti 1281, agar-dilution, 24-hour incubation, read-out: MIC): 8 µg/mL (≈ 13.9 µM)
MIC (Trichomonas vaginalis): 25 µg/mL (≈ 43.6 µM)
MIC ([17]; Bacteriodes melaninogenicus 1856/28, agar-dilution, 24-hour incubation, read-out: MIC): 32 µg/mL (≈ 55.8 µM)
MIC ([18]; Bacteriodes melaninogenicus 2736, agar-dilution, 24-hour incubation, read-out: MIC): > 128 µg/mL
MIC ([19]; Peptostreptococcus intermedius 1264, agar-dilution, 24-hour incubation, read-out: MIC): 128 µg/mL (≈ 223 µM)
MIC (Candida albicans): 10 µg/mL (≈ 17.4 µM)
MIC [20]: 16 µg/mL (≈ 27.9 µM)
MIC ([21]; Bacteriodes fragilis 1936B, agar-dilution, 24-hour incubation, read-out: MIC): 8 µg/mL (≈ 13.9 µM)
loss of nitrogen (stability) [22]: spontaneously lose nitrogen
MIC [23]: 16 µg/mL (≈ 27.9 µM)
MIC (Bacteriodes fragilis 111; Bacteriodes fragilis 111, agar-dilution, 24-hour incubation, read-out: MIC): 16 µg/mL (≈ 27.9 µM)
MIC [24]: 4 µg/mL (≈ 6.97 µM)
LD50 [25]: 11.8 mg/kg
MIC ([26]; Cutibacterium acnes, Propionibacterium acnes 79, agar-dilution, 24-hour incubation, read-out: MIC): 16 µg/mL (≈ 27.9 µM)
MIC (Trichomonas foetus): 25 µg/mL (≈ 43.6 µM)
MIC ([27]; Collinsella aerofaciens, Eubacterium aerofaciens 1235, agar-dilution, 24-hour incubation, read-out: MIC): 16 µg/mL (≈ 27.9 µM)
MIC ([28]; Bacteriodes thetaiotaomicron 1438, agar-dilution, 24-hour incubation, read-out: MIC): > 128 µg/mL
MIC ([29]; Clostridioides difficile, Clostridium difficile 2994, agar-dilution, 24-hour incubation, read-out: MIC): 16 µg/mL (≈ 27.9 µM)
